Source: PubChem BioAssay (NCI)
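How tested: cells in 96-well plates exposed to compound for 48 hours at five concentrations. TGI: total growth inhibition.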

Legend:
Experiment in all cases: NCI tumour cell line growth inhibition, 48 h
[1] = test system: OVCAR-4 ovarian
[2] = test system: HL-60(TB) leukemia
[3] = test system: KM20L2 colon
[4] = test system: HCC-2998 colon
[5] = test system: SN12C renal
[6] = test system: SK-OV-3 ovarian
[7] = test system: A498 renal
[8] = test system: M19-MEL melanoma
[9] = test system: DMS 114 small cell lung
[10] = test system: UACC-257 melanoma
[11] = test system: SN12K1 renal
[12] = test system: OVCAR-5 ovarian
[13] = test system: DLD-1 colon
[14] = test system: HOP-18 NSCLC
[15] = test system: SNB-19 CNS
[16] = test system: NCI-H522 lung
[17] = test system: MOLT-4 leukemia
[18] = test system: COLO 205 colon
[19] = test system: A549 NSCLC
[20] = test system: CCRF-CEM leukemia
[21] = test system: P388/ADR leukemia
[22] = test system: HCT-15 colon
[23] = test system: K-562 leukemia
[24] = test system: MALME-3M melanoma
[25] = test system: P388 leukemia
[26] = test system: LOX IMVI melanoma
[27] = test system: RXF 393 renal
[28] = test system: UACC-62 melanoma
[29] = test system: RPMI-8226 leukemia
[30] = test system: SW-620 colon
[31] = test system: NCI/ADR-RES ovarian
[32] = test system: SK-MEL-28 melanoma
[33] = test system: HOP-62 NSCLC
[34] = test system: SK-MEL-2 melanoma
[35] = test system: NCI-H460 lung
[36] = test system: HOP-92 NSCLC
[37] = test system: SF-539 CNS
[38] = test system: MCF7 breast
[39] = test system: U251 CNS
[40] = test system: NCI-H226 lung
[41] = test system: SK-MEL-5 melanoma
[42] = test system: OVCAR-3 ovarian
[43] = test system: UO-31 renal
[44] = test system: SF-295 CNS
[45] = test system: OVCAR-8 ovarian
[46] = test system: NCI-H23 lung
[47] = test system: HT29 colon
[48] = test system: IGROV1 ovarian
[49] = test system: DMS 273 small cell lung
[50] = test system: EKVX NSCLC
[51] = test system: XF 498 CNS
[52] = test system: KM12 colon
[53] = test system: SNB-75 CNS
[54] = test system: SF-268 CNS
[55] = test system: HCT-116 colon
[56] = test system: SNB-78 CNS

Compound: O=[N+]([O-])c1cccc2c1[nH]c1c(-c3ccccc3)nccc12
- TGI [1]: > 33.2 µM
- TGI [2]: 4.35 µM
- TGI [3]: 10.8 µM
- TGI [4]: 13.9 µM
- TGI [5]: > 73.1 µM
- TGI [6]: 7.75 µM
- TGI [7]: 12.9 µM
- TGI [8]: 6.14 µM
- TGI [9]: 5.75 µM
- TGI [10]: 6.29 µM
- TGI [11]: 8.11 µM
- TGI [12]: > 100 µM
- TGI [13]: > 48.9 µM
- TGI [14]: 2.82 µM
- TGI [15]: > 100 µM
- TGI [16]: 4.27 µM
- TGI [17]: 4.4 µM
- TGI [18]: 4.23 µM
- TGI [19]: > 42.5 µM
- TGI [20]: 21.9 µM
- TGI [21]: 11.7 µM
- TGI [22]: > 38.5 µM
- TGI [23]: > 100 µM
- TGI [24]: 6.43 µM
- TGI [25]: 9.75 µM
- TGI [26]: 10.7 µM
- TGI [27]: 12.4 µM
- TGI [28]: 9.04 µM
- TGI [29]: > 100 µM
- TGI [30]: > 36.9 µM
- TGI [31]: 4.44 µM
- TGI [32]: 21.9 µM
- TGI [33]: 5.04 µM
- TGI [34]: 3 µM
- TGI [35]: > 100 µM
- TGI [36]: 3.05 µM
- TGI [37]: > 69 µM
- TGI [38]: > 24.8 µM
- TGI [39]: > 30.3 µM
- TGI [40]: 5.33 µM
- TGI [41]: 3.46 µM
- TGI [42]: 4.45 µM
- TGI [43]: 4.22 µM
- TGI [44]: 12.1 µM
- TGI [45]: 9.32 µM
- TGI [46]: 8.48 µM
- TGI [47]: 10.4 µM
- TGI [48]: 11.4 µM
- TGI [49]: 7.58 µM
- TGI [50]: > 29.5 µM
- TGI [51]: 11.7 µM
- TGI [52]: 12.3 µM
- TGI [53]: 7.59 µM
- TGI [54]: > 100 µM
- TGI [55]: 11.2 µM

Compound: Nc1cc(O)c2cc(N=Nc3ccc(N=Nc4ccc(N=Nc5ccc6cc(S(=O)(=O)O)cc(S(=O)(=O)O)c6c5)c5ccccc45)c4cc(S(=O)(=O)O)ccc34)c(S(=O)(=O)O)cc2c1
- TGI [1]: > 100 µM
- TGI [2]: > 100 µM
- TGI [4]: > 100 µM
- TGI [5]: > 100 µM
- TGI [56]: > 100 µM
- TGI [6]: > 100 µM
- TGI [7]: > 100 µM
- TGI [8]: > 100 µM
- TGI [10]: > 100 µM
- TGI [11]: > 100 µM
- TGI [12]: > 100 µM
- TGI [13]: > 100 µM
- TGI [14]: > 100 µM
- TGI [15]: > 100 µM
- TGI [16]: > 100 µM
- TGI [17]: > 100 µM
- TGI [18]: > 100 µM
- TGI [19]: > 100 µM
- TGI [20]: > 100 µM
- TGI [22]: > 100 µM
- TGI [23]: > 31.6 µM
- TGI [24]: > 100 µM
- TGI [25]: > 100 µM
- TGI [26]: > 100 µM
- TGI [27]: > 100 µM
- TGI [28]: > 100 µM
- TGI [29]: > 100 µM
- TGI [30]: > 100 µM
- TGI [31]: > 100 µM
- TGI [32]: > 100 µM
- TGI [33]: > 100 µM
- TGI [34]: > 100 µM
- TGI [35]: > 100 µM
- TGI [36]: > 93.3 µM
- TGI [37]: > 100 µM
- TGI [38]: > 100 µM
- TGI [39]: > 100 µM
- TGI [40]: > 93.3 µM
- TGI [41]: > 100 µM
- TGI [42]: > 100 µM
- TGI [43]: > 100 µM
- TGI [44]: > 100 µM
- TGI [45]: > 100 µM
- TGI [46]: > 100 µM
- TGI [47]: > 100 µM
- TGI [48]: > 100 µM
- TGI [49]: > 100 µM
- TGI [50]: > 100 µM
- TGI [51]: > 100 µM
- TGI [52]: > 100 µM
- TGI [53]: > 100 µM
- TGI [54]: > 100 µM
- TGI [55]: > 100 µM
